Source: ChEMBL document CHEMBL1147271, “New cytotoxic metabolites from a marine sponge Homaxinella sp” (2004)
Converted amounts (≈) assume the structure as drawn.

Experiments:
Assay type in all cases: functional
Conditions in all cases: read-out: ED50 (the source's name)
[1] = tested on: HCT-15; assay: Cytotoxicity against human HCT15 cells
[2] = tested on: SK-OV-3; assay: Cytotoxicity against human SKOV3 cells
[3] = tested on: XF498; assay: Cytotoxicity against human XF498 cells
[4] = tested on: A549; assay: Cytotoxicity against human A549 cells
[5] = tested on: SK-MEL-2; assay: Cytotoxicity against human SK-MEL-2 cells

| SMILES | EC50 [1] [µg/mL] | EC50 [2] [µg/mL] | EC50 [3] [µg/mL] | EC50 [4] [µg/mL] | EC50 [5] [µg/mL] |
| --- | --- | --- | --- | --- | --- |
| CCCCC/C=C\C/C=C\C/C=C\C[C@@]1(O)C=CC(=O)C1 | 2.9 (≈ 10.1 µM) | 4.4 (≈ 15.3 µM) | 4.9 (≈ 17 µM) | 5.4 (≈ 18.7 µM) | 2.6 (≈ 9.01 µM) |
| CCCCC/C=C\C/C=C\C/C=C\CO | 25.5 (≈ 122 µM) | 19.8 (≈ 95 µM) | 30 (≈ 144 µM) | > 30 | 74.1 (≈ 356 µM) |
| COc1cccc2c1C(=O)c1c(O)c3c(c(O)c1C2=O)C[C@@](O)(C(=O)CO)C[C@@H]3O[C@H]1C[C@H](N)[C@H](O)[C@H](C)O1 [DOXORUBICIN] | 0.17 (≈ 0.313 µM) | 0.24 (≈ 0.442 µM) | 0.12 (≈ 0.221 µM) | 0.07 (≈ 0.129 µM) | 0.12 (≈ 0.221 µM) |
| CCCCC/C=C\C/C=C\C/C=C\C[C@@]1(OC)C=CC(=O)O1 [HOMAXINOLIDE A] | 8.9 (≈ 29.2 µM) | 16.1 (≈ 52.9 µM) | 9.9 (≈ 32.5 µM) | 10.1 (≈ 33.2 µM) | 2.7 (≈ 8.87 µM) |
| CC/C=C\C/C=C\C/C=C\C/C=C\C[C@]1(OC)C=CC(=O)O1 [HOMAXINOLIDE B] | 17.5 (≈ 57.9 µM) | > 30 | > 30 | 32.1 (≈ 106 µM) | 4.5 (≈ 14.9 µM) |
| CC/C=C/C/C=C\C/C=C\C/C=C\C[C@@]1(OC)C=CC(=O)O1 [HOMAXINOLIDE C] | 34.8 (≈ 115 µM) | > 30 | > 30 | > 30 | 14.9 (≈ 49.3 µM) |
